We go through two molecules from article PMC4786642, “Catch-bond mechanism of the bacterial adhesin FimH” (Nature Communications, 2016).

Like-named read-outs stand apart in the source and are kept apart here.

Experiment [1] addresses T1, FimHL^F18 (Escherichia coli, UniProt P08191, N91S/S99N/V48A). Kind of experiment: Equilibrium titration of FimHL with GN-FP-4 (fluorescence). The format is binding, E. coli strain F18. Also noted: The isolated lectin domains (residues 1–159) of both FimH variants; made in house; host or cells: E. coli HM125 (periplasm), plasmid pfimHL^F18. Here is the method:
(§1) The concentration of GN-FP-4 was kept constant at 1.0 or 2.0 nM and the concentration of FimHL was varied between 0 and 10 nM. The samples were equilibrated overnight, and their fluorescence intensities at 520 nm were recorded for 30 s and averaged. The experimental data were fitted according to equation (2).

Experiment [2] deals with T2, FimHL^K12 (Escherichia coli, UniProt P08191). Described as above. The experiment is classed as binding, E. coli strain K12. Further details: The isolated lectin domains (residues 1–159) of both FimH variants; made in house; host or cells: E. coli HM125 (periplasm). Here is the method: as §1
T2 sequence (P08191 22-180): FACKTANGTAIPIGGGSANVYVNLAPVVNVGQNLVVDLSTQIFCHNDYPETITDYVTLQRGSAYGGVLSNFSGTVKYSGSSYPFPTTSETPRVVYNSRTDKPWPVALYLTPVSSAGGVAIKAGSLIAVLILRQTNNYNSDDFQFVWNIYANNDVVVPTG
For experiment [3], the target named is T2, FimHL^K12. The following applies: HM.
For experiment [4], the target named is T2, FimHL^K12.
In experiment [5] the test system is FimH^F18-piliated E. coli. Kind of experiment: Cell tracking on mannose-BSA-coated surfaces, static conditions. The format is cell-based. The following applies: in the presence of 200 μM HM; FimH^F18-piliated bacteria. From the text:
(§2) The E. coli KB18 strain[67] was kindly provided by Professor Evgeni Sokurenko and served as host for the generation of recombinant strains. KB18 contains the pPKL114 plasmid, which encodes the whole fim operon with a translational stop linker upstream of the fimH gene. KB18 was co-transformed with the pGB2-24 plasmid, which was isolated from the ELT115 strain and encodes fimH^J96 (kindly provided by Professor Evgeni Sokurenko). Single-nucleotide point mutations were introduced in fimH^J96 using overlap extension PCR following standard molecular techniques to obtain fimH^F18 and fimH^F18-Ala188Asp. The PCR products were cloned into pGB2-24 by the ApaLI and SphI sites, and KB18 was transformed with the resulting plasmid. […]
(§3) Cell tracking was carried out at room temperature under static conditions. […] Time-lapse movies were recorded with a × 20 phase contrast objective using a CMOS digital camera (The Imaging Source Europe, Bremen, Germany) mounted on a Nikon Ti Eclipse inverted microscope and using the NIS Elements Basic Research software (Nikon, Zurich, Switzerland). […] Five to seven independent movies were recorded for each experimental set-up: FimH^F18 or FimH^F18-Ala188Asp on 1M-BSA-coated dishes and FimH^F18 and FimH^F18-Ala188Asp on BSA-coated cell culture dishes. […]

Experiment [6] deals with FimH^F18-Ala188Asp-piliated E. coli. Described as above. The format is cell-based. The following applies: in the presence of 200 μM HM; FimH^F18-Ala188Asp-piliated bacteria.
Excerpt: as §2, §3

Experiment [7] addresses FimH^K12·DsG. The format is binding, E. coli strain K12. The following applies: HM, FimH variant K12. The protocol:
(§4) Measurements were performed with a stirred 1 × 0.4-cm quartz cuvette. […] The samples were equilibrated overnight, and their fluorescence intensities were recorded for 30 s and averaged.

In experiment [8] the target is T3, FimH^K12·DsG (Escherichia coli, UniProt P08191).
T3 construct: those of the corresponding full-length FimH·DsG complexes; made in house; host or cells: E. coli HM125 (periplasm); DsG peptide synthetic, from JPT
T3 sequence (P08191 22-300, other chains not shown): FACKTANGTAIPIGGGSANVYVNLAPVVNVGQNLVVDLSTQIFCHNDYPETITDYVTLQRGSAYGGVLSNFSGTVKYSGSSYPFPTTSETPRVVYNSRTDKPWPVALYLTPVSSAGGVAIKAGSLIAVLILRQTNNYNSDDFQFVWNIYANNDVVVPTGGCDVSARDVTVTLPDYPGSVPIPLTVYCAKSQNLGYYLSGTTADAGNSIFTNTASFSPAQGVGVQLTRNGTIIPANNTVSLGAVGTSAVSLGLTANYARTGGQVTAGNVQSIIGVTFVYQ
The experiment is classed as binding, E. coli strain K12. The conditions noted are these: HM, FimH^K12·DsG. Here is the method: as §4

In experiment [9] the target is T4, FimH^F18·DsG (Escherichia coli, UniProt P08191, N91S/S99N/V48A). The conditions noted are these: for Kd: HM, FimH^F18·DsG.
T4 sequence (P08191 22-300 V48A/N91S/S99N, other chains not shown): as the sequence (P08191 22-300, other chains not shown) above, with V27A, N70S, S78N counted along it
Experiment [10] concerns the target T3, FimH^K12·DsG. The format is binding, E. coli strain K12. The conditions noted are these: for Kd: HM, FimH^K12·DsG. The protocol:
A constant FimH·DsG concentration of 1 or 2 μM was used. […] The fluorescence traces were globally fitted with Dynafit[59] according to a second-order binding and first-order dissociation reaction.

The target in experiment [11] is T4, FimH^F18·DsG. The following applies: HM; for Kd: FimH^F18·DsG. The protocol:
as §4

In experiment [12] the test system is E. coli piliated with FimH^F18 or FimH^F18-Ala188Asp. Kind of experiment: Cell tracking on mannose-BSA-coated surfaces, static conditions (strain not separated). The format is cell-based. An excerpt: The E. coli KB18 strain[67] was kindly provided by Professor Evgeni Sokurenko and served as host for the generation of recombinant strains. KB18 contains the pPKL114 plasmid, which encodes the whole fim operon with a translational stop linker upstream of the fimH gene. KB18 was co-transformed with the pGB2-24 plasmid, which was isolated from the ELT115 strain and encodes fimH^J96 (kindly provided by Professor Evgeni Sokurenko). Single-nucleotide point mutations were introduced in fimH^J96 using overlap extension PCR following standard molecular techniques to obtain fimH^F18 and fimH^F18-Ala188Asp. The PCR products were cloned into pGB2-24 by the ApaLI and SphI sites, and KB18 was transformed with the resulting plasmid.
E. coli strains were grown from frozen stocks in LB medium supplemented with antibiotics (100 μg ml^−1 ampicillin and 25 μg ml^−1 chloramphenicol) until late log phase (OD600 of 1.0–1.2) and diluted to an OD600 of 0.01 before movie acquisition.
Cell culture dishes (35 mm, Corning Inc., Corning, NY) were incubated with 50 μl of 50 μg ml^−1 1M-BSA in 0.02 M bicarbonate buffer for 75 min at 37 °C. The dishes were then washed three times and quenched with 0.1% PBS–BSA to remove unbound 1M-BSA and block remaining sites on the plastic surface to prevent nonspecific binding of bacteria. Controls were prepared by treating cell culture dishes with 0.1% PBS–BSA only. The bacterial suspension was added to the cell culture dishes for microscopy studies.
Cell tracking was carried out at room temperature under static conditions. A bacterial suspension of 50 μl in the late logarithmic growth phase was placed onto the cell culture dishes (diluted to OD600 of 0.01), and a cover slide was placed on top. The delay between sample placement and start of the movie acquisition was about 1 min. Time-lapse movies were recorded with a × 20 phase contrast objective using a CMOS digital camera (The Imaging Source Europe, Bremen, Germany) mounted on a Nikon Ti Eclipse inverted microscope and using the NIS Elements Basic Research software (Nikon, Zurich, Switzerland). Phase contrast images in an ∼5-μm-thick surface layer were taken at four to five frames per second over 5 min. The dead time of movie acquisition was ∼1 min. The resulting images were segmented by creating a projection of the average intensities over all frames to remove the background and by subsequent thresholding using the Maximum Entropy method in Fiji[68] to obtain binary images (examples shown in Supplementary Movies 1 and 2). […] Five to seven independent movies were recorded for each experimental set-up: FimH^F18 or FimH^F18-Ala188Asp on 1M-BSA-coated dishes and FimH^F18 and FimH^F18-Ala188Asp on BSA-coated cell culture dishes. […]

The target in experiment [13] is T1, FimHL^F18. The following applies: HM.
Experiment [14] concerns the target T1, FimHL^F18.

T1 sequence (P08191 22-180 V48A/N91S/S99N): as the sequence (P08191 22-180) above, with V27A, N70S, S78N counted along it

In the case of `O=C(NCCNC(=S)Nc1ccc2c(c1)C(=O)OC21c2ccc(O)cc2Oc2cc(O)ccc21)c1ccc(-c2ccc(O[C@H]3O[C@H](CO)[C@@H](O)[C@H](O)[C@@H]3O)c(Cl)c2)cc1` [GN-FP-4, 3′-Chloro-N-(2-(3-(3′,6′-dihydroxy-3-oxo-3H-spiro[isobenzofuran-1,9′-xanthen]-5-yl)-thioureido)ethyl)-4′-(α-D-mannopyranosyloxy)-biphenyl-4-carboxamide], the Kd is 0.00018 µM on FimHL^F18 [1]; 0.07 nM at FimHL^K12 [2] (FimHL^K12, equilibrium fluorescence titration, read-out: Kd); 0.07 nM at FimHL^K12 [2] (FimHL^K12, pH 7.4, 25 °C, read-out: Kd of GN-FP-4 binding). Besides, the “fold higher affinity compared to HM” value on FimHL^K12 [2] (FimHL^K12 and FimHL^F18) was 16 fold.

In the case of `CCCCCCCO[C@H]1O[C@H](CO)[C@@H](O)[C@H](O)[C@@H]1O` [HM, n-heptyl α-D-mannoside], the Kd was 0.0011 µM on FimHL^K12 [3] (FimHL^K12, displacement of GN-FP-4); 0.0011 µM at FimHL^K12 [3] (read-out: Kd (equilibrium titration; M), FimHL^K12, pH 7.4, 25 °C, from competition equilibria with GN-FP-4); 3.6 µM on FimH^K12·DsG [8] (equilibrium titration, read-out: equilibrium dissociation constant (Kd)); 3.6 µM on FimH^K12·DsG [8] (pH 7.4, 25 °C, read-out: Kd (equilibrium titration; M)); 12 µM on FimH^F18·DsG [9] (read-out: Kd (amplitude analysis; M), pH 7.4, 25 °C, stopped-flow amplitudes); 12 ± 1 µM on FimH^F18·DsG [9] (read-out: Kd (amplitudes of stopped-flow reactions), amplitude analysis). Also, the Kd stood at 12 µM on FimH^F18·DsG [9] (read-out: koff/kon, pH 7.4, 25 °C, ratio of rate constants); 4.3 µM on FimH^K12·DsG [10] (pH 7.4, 25 °C, ratio of rate constants, read-out: koff/kon); 4.2 µM at FimH^K12·DsG [10] (pH 7.4, 25 °C, stopped-flow amplitudes, read-out: Kd (amplitude analysis; M)); 4.2 ± 0.3 µM at FimH^K12·DsG [10] (read-out: Kd (amplitudes of stopped-flow reactions)); 9.9 µM on FimH^F18·DsG [11] (read-out: Kd (equilibrium titration; M), pH 7.4, 25 °C); 9.9 µM on FimH^F18·DsG [11] (read-out: equilibrium dissociation constant (Kd), equilibrium titration). The Kd came out at 0.003 µM at FimHL^F18 [13] (FimHL^F18, displacement of GN-FP-4) and 0.003 µM on FimHL^F18 [13] (read-out: Kd (equilibrium titration; M), FimHL^F18, pH 7.4, 25 °C, from competition equilibria with GN-FP-4). The “kon (M^−1 s^−1)” value at FimHL^K12 [4] (HM binding to FimHL^K12, pH 7.4, 25 °C, calculated with koff and Kd) was 1.8±0.6 × 10^5(d) M^−1 s^−1; on FimH^F18·DsG [9] (HM binding to FimH^F18·DsG, pH 7.4, 25 °C) it was 4.9±0.1 × 10^6 M^−1 s^−1; at FimH^K12·DsG [10] (HM binding to FimH^K12·DsG, pH 7.4, 25 °C) it was 5.0±0.1 × 10^6 M^−1 s^−1; on FimHL^F18 [14] (HM binding to FimHL^F18, pH 7.4, 25 °C, calculated with koff and Kd) it was 1.2±0.4 × 10^5(d) M^−1 s^−1. Besides, the “koff (s^−1)” value at FimHL^K12 [4] (HM dissociation from FimHL^K12, pH 7.4, 25 °C) is 2.0±0.4 × 10^−4 s^−1; at FimH^F18·DsG [9] (HM dissociation from FimH^F18·DsG, pH 7.4, 25 °C), 5.8±0.1 × 10^1 s^−1; at FimH^K12·DsG [10] (HM dissociation from FimH^K12·DsG, pH 7.4, 25 °C) it was 2.2±0.1 × 10^1 s^−1; at FimHL^F18 [14] (HM dissociation from FimHL^F18, pH 7.4, 25 °C) it was 3.5±0.8 × 10^−4 s^−1. In addition, the “mean velocity on 1M-BSA” value in experiment [5] is recorded as 6.5 μm s^−1; in experiment [6] it was 5.9 μm s^−1. Also, the “Kd (FimH·DsG)/Kd (FimHL)” value at FimH^K12·DsG [7] and at FimH^F18·DsG [11] (FimH variant F18) was 3,300 each time. Besides, the “reduction of permanent attachment to 1M-BSA” value in [12] (in the presence of 200 μM HM) came out at 85%. In addition, in [12] (in the presence of 200 μM HM), the “reduction of transient attachment to 1M-BSA” value was 75%. Also, the “transient and permanent attachment to 1M-BSA” value in experiment [12] (in the presence of HM) was “significantly reduced”. The “bacterial velocity on 1M-BSA” value in experiment [12] (upon addition of 100 µM HM) was “increased”.
